In patent US20260199239A1, “IONIZABLE LIPIDS WITH MALONATE TAILS” (ModernaTX, Inc., priority 2022, published 2026):
“And” between values parts separate entries of the source, which are not always exact repeats. Equal entries are not always repeated.

Tests used:
[1] = tested on: hEPO protein expression; assay: hEPO protein expression in vivo after systemic administration of LNPs
Protocol: In order to monitor how effectively various nanoparticle compositions deliver therapeutic and/or prophylactic agents to targeted cells, different nanoparticle compositions including a particular therapeutic and/or prophylactic agent (for example, a modified or naturally occurring RNA such as an mRNA) are prepared and administered to animal populations. Animals (e.g., mice, rats, or non-human primates) are intravenously, intramuscularly, intraarterially, or intratumorally administered a single dose including a nanoparticle composition comprising a lipid of the disclosure and an mRNA expressing a protein, e.g., human erythropoietin (hEPO) or luciferase. A control composition including PBS may also be employed.
Upon administration of nanoparticle compositions to an animal, dose delivery profiles, dose responses, and toxicity of particular formulations and doses thereof can be measured by enzyme-linked immunosorbent assays (ELISA), bioluminescent imaging, or other methods. For nanoparticle compositions including mRNA, time courses of protein expression can also be evaluated. Samples collected from the animals for evaluation may include blood, sera, and tissue (for example, muscle tissue from the site of an intramuscular injection and internal tissue); sample collection may involve sacrifice of the animals.
ELISA test kits may provide hEPO concentrations in milli International Units per mL (mIU/mL), e.g., per mL of tested serum. Typically, the EPO concentration of unknown sample is calculated from a calibration curve. Standards (used for the calibration curve) are calibrated according to the 2. IRP WHO preparation. In some embodiments, mIU/mL corresponds to […]. Nanoparticle compositions including mRNA are useful in the evaluation of the efficacy and usefulness of various formulations for the delivery of therapeutic and/or prophylactic agents. Higher levels of protein expression induced by administration of a composition including an mRNA will be indicative of higher mRNA translation and/or nanoparticle composition mRNA delivery efficiencies. As the non-RNA components are not thought to affect translational machineries themselves, a higher level of protein expression is likely indicative of a higher efficiency of delivery of the therapeutic and/or prophylactic agent by a given nanoparticle composition relative to other nanoparticle compositions or the absence thereof.
In some embodiments, an in vivo expression assay may be used to assess potency of expression of lipids of the disclosure. In some embodiments, the protein expression (hEPO) may be measured in mice following administration of a nanoparticle comprising a lipid of the disclosure (e.g., a loaded LNP). In some embodiments, lipid nanoparticles of the instant disclosure may be intravenously administered to mice (e.g., CD-1 mice).
In some embodiments, the concentration of hEPO in serum may be tested after administration (e.g., about six hours after injection). In some embodiments, residual levels of the lipids of the disclosure in organs or tissue of the subject after administration (e.g., 6 h, 12 h, 18 h, 24 h, 36h, or 48 h after administration) are measured. In some embodiments, the residual levels of the lipids of the disclosure in the liver are measured. In some embodiments, an in vitro expression assay may be used to assess nanoparticles of the disclosure. In some embodiments, cells (e.g., HeLa) may be plated in an imaging plate (e.g., poly-D-lysine coated) and cultured in serum (e.g., human serum, mouse serum, cynomolgus monkey serum or fetal bovine serum). In some embodiments, lipid nanoparticles of the disclosure comprising an mRNA expressing fluorescent protein (e.g., green fluorescent protein (GFP)) and a fluorescent lipid (e.g., rhodamine-DOPE) may be added to the plate and the plate imaged for uptake and expression. In some embodiments, expression may be evaluated by measuring fluorescence (e.g., from GFP). […]

[2] = LNP particle size and polydispersity index (PDI); assay type: physicochemical; conditions: LNP lipid:PEG-1:DSPC:Cholesterol 48:2:11:39, hEPO mRNA, 20 mM Tris 8% Sucrose pH 7.4
Protocol: A Zetasizer Nano ZS (Malvern Instruments Ltd, Malvern, Worcestershire, UK) can be used to determine the particle size, the polydispersity index (PDI) and the zeta potential of the nanoparticle compositions in 1×PBS in determining particle size and 15 mM PBS in determining zeta potential.
LNPs may be characterized by a variety of methods. For example, microscopy (e.g., transmission electron microscopy or scanning electron microscopy) may be used to examine the morphology and size distribution of a nanoparticle composition. Dynamic light scattering or potentiometry (e.g., potentiometric titrations) may be used to measure zeta potentials. Dynamic light scattering may also be utilized to determine particle sizes. Instruments such as the Zetasizer Nano ZS (Malvern Instruments Ltd, Malvern, Worcestershire, UK) may also be used to measure multiple characteristics of a nanoparticle composition, such as particle size, polydispersity index, and zeta potential.
(§1) LNPs comprising ionizable lipids described herein were formulated according to Table 2 and the following general procedure.
(§2) General procedure for one-pot LNP formation: Lipid stock solutions in ethanol are mixed with mRNA in 25 mM acetate solution at a 3:1 ratio in a microfluidic mixer. The resulting LNPs, which are at approximately pH 5 and 25% EtOH, are buffer exchanged by dialysis into the storage buffer. The LNP solutions are then concentrated by Amicon® and purified by a 0.2 uM sterile filter.

[3] = Osmolality of LNP formulation; assay type: physicochemical; conditions: LNP formulation in 20 mM Tris 8% Sucrose storage buffer
Text: as §1

[4] = Endotoxin content of LNP formulation; conditions: LNP lipid:PEG-1:DSPC:Cholesterol 48:2:11:39, hEPO mRNA
Text: as §1

[5] = pH of LNP formulation; assay type: physicochemical; conditions: LNP formulation in 20 mM Tris 8% Sucrose storage buffer
Text: as §1

[6] = mRNA encapsulation by the LNP (% EE, total mRNA in TX); assay type: physicochemical; conditions: LNP lipid:PEG-1:DSPC:Cholesterol 48:2:11:39, hEPO mRNA
Protocol: For nanoparticle compositions including an RNA, a QUANT-IT™ RIBOGREEN® RNA assay (Invitrogen Corporation Carlsbad, CA) can be used to evaluate the encapsulation of an RNA by the nanoparticle composition. The samples are diluted to a concentration of approximately 5 μg/mL in a TE buffer solution (10 mM Tris-HCl, 1 mM EDTA, pH 7.5). 50 μL of the diluted samples are transferred to a polystyrene 96 well plate and either 50 μL of TE buffer or 50 μL of a 2% Triton X-100 solution is added to the wells. The plate is incubated at a temperature of 37° C. for 15 minutes. The RIBOGREEN® reagent is diluted 1:100 in TE buffer, and 100 μL of this solution is added to each well. The fluorescence intensity can be measured using a fluorescence plate reader (Wallac Victor 1420 Multilablel Counter; Perkin Elmer, Waltham, MA) at an excitation wavelength of, for example, about 480 nm and an emission wavelength of, for example, about 520 nm. The fluorescence values of the reagent blank are subtracted from that of each of the samples and the percentage of free RNA is determined by dividing the fluorescence intensity of the intact sample (without addition of Triton X-100) by the fluorescence value of the disrupted sample (caused by the addition of Triton X-100).
The efficiency of encapsulation of a therapeutic and/or prophylactic agent describes the amount of therapeutic and/or prophylactic agent that is encapsulated or otherwise associated with an LNP after preparation, relative to the initial amount provided. The encapsulation efficiency is desired to be high (e.g., close to 100%). The encapsulation efficiency may be measured, for example, by comparing the amount of therapeutic and/or prophylactic agent in a solution containing a loaded LNP before and after breaking up the loaded LNP with one or more organic solvents or detergents. Fluorescence may be used to measure the amount of free therapeutic and/or prophylactic agent (e.g., RNA) in a solution. For the loaded LNPs formulated with lipids of the disclosure, the encapsulation efficiency of a therapeutic and/or prophylactic agent is at least 50%, for example 50%, 55%, 60%, 65%, 70%, 75%, 80%, 85%, 90%, 91%, 92%, 93%, 94%, 95%, 96%, 97%, 98%, 99%, or 100%. In some embodiments, the encapsulation efficiency is at least 80%. In some embodiments, the encapsulation efficiency is at least 90%. In some embodiments, the encapsulation efficiency of the therapeutic and/or prophylactic agent is between 80% and 100%.
as §1, §2

[7] = Table 3B groups 1A-8A, ratio to L5 LNP
[8] = Table 3A groups 1-8, ratio to L5 LNP

| SMILES | 6 hr protein expression ratio cf. L5 [1, 7] | 24 hr protein expression ratio cf. L5 [1, 7] | PDI [2] | Size (nm) [2] | Osmolality (mOsm/kg) [3] | Endotoxin (EU/mL) [4] [EU/mL] | pH [5] | % EE [6] | 6 hr protein expression ratio cf. L5 [1, 8] | 24 hr protein expression ratio cf. L5 [1, 8] |
| --- | --- | --- | --- | --- | --- | --- | --- | --- | --- | --- |
| CCCCCCCCC(CCCCCCCC)OC(=O)CCCCCCCN(CCCCCCC(C(=O)OCCCCCC)C(=O)OCCCCCC)CCCNC(=O)CC [Compound M5, Dihexyl 2-(6-((8-(heptadecan-9-yloxy)-8-oxooctyl)(3-propionamidopropyl)amino)hexyl)malonate] | 1.37 | 1.15 | 0.496 | 126.7 nm | 320 mOsm/kg | 2.7 | 6.962 | 69.8% |  |  |
| CCCCCCCCOC(=O)C(CCCCCCN(CCO)CCCCCCCC(=O)OC(CCCCCCCC)CCCCCCCC)C(=O)OCCCCCCCC [Compound M2, Dioctyl 2-(6-((8-(heptadecan-9-yloxy)-8-oxooctyl)(2-hydroxyethyl)amino)hexyl)malonate] |  |  | 0.186 | 58.0 nm | 315 mOsm/kg |  |  | 97.9% | 0.3 | 0.3 |
| CCCCCCCCC(CC)OC(=O)CCCCCCCN(CCCCCCCC(=O)OC(CCCCCCCC)CCCCCCCC)CCCNc1c(NC)c(=O)c1=O (stereo not shown) [Compound L5, reference compound] | 1.00 | 1.00 | 0.117 and 0.119 | 60.4 nm and 59.9 nm | 313 mOsm/kg and 320 mOsm/kg | 2 | 7.456 | 95.2% and 96.1% | 1.0 | 1.0 |
| CCCCCCCCC(CCCCCCCC)OC(=O)CCCCCCCN(CCCCCCC(C(=O)OCCCCCC)C(=O)OCCCCCC)CCCNc1c(NC)c(=O)c1=O [Compound M3, Dihexyl 2-(6-((8-(heptadecan-9-yloxy)-8-oxooctyl)(3-((2-(methylamino)-3,4-dioxocyclobut-1-en-1-yl)amino)propyl)amino)hexyl)malonate] | 2.53 | 2.42 | 0.148 and 0.132 | 59.3 nm and 59.1 nm | 317 mOsm/kg and 318 mOsm/kg | 2 | 7.155 | 97.8% and 98.3% | 1.0 | 1.2 |
| CCCCCCCCC(CCCCCCCC)OC(=O)CCCCCCCN(CCO)CCCCCCC(C(=O)OCCCCCC)C(=O)OCCCCCC [Compound M1, Dihexyl 2-(6-((8-(heptadecan-9-yloxy)-8-oxooctyl)(2-hydroxyethyl)amino)hexyl)malonate] | 1.70 | 1.46 | 0.164 and 0.128 | 57.0 nm and 58.7 nm | 314 mOsm/kg and 320 mOsm/kg | 2.4 | 7.452 | 96.9% and 94.1% | 0.9 | 0.9 |
| CCCCCCCCCOC(=O)CCCCCCCN(CCO)CCCCCCCC(=O)OC(CCCCCCCC)CCCCCCCC [Compound L4, reference compound] | 0.08 | 0.07 |  | 74.9 nm and 104.5 nm | 317 mOsm/kg and 311 mOsm/kg | 2.3 | 7.444 | 94.8% and 92.6% | 0.1 | 0.1 |
| CCCCCCCCC(CCCCCCCC)OC(=O)CCCCCCCN(CCO)CCCCCCCC(=O)OCCC(CCCC)CCCC [Compound L6, reference compound] | 0.94 | 0.84 | 0.166 | 58.2 nm | 321 mOsm/kg | 2.3 | 7.468 | 96.9% |  |  |
| CCCCCCCCC(CCCCCCCC)OC(=O)CCCCCCCN(CCCCCCCC(=O)OCCC(CCCC)CCCC)CCCNS(=O)(=O)CC [Compound L2, reference compound] |  |  | 0.177 | 60.7 nm | 315 mOsm/kg |  |  | 95.8% | 0.7 | 0.8 |
